# Assay results taken from patent US6103883A (priority 1999, dated 2000).
# Biological target: T1, verotoxin binding to Gb3 (Enterobacteria phage H19B, UniProt P69179)
# Conditions: competition with radiolabelled verotoxin 1; FIG. 5C
row,SMILES,inhibition of verotoxin binding to Gb3
1,CN(C)C(CO[C@@H]1O[C@H](CO)[C@@H](O[C@@H]2O[C@H](CO)[C@H](O[C@H]3O[C@H](CO)[C@H](O)[C@H](O)[C@H]3O)[C@H](O)[C@H]2O)[C@H](O)[C@H]1O)C(O)C(=O)NC12CC3CC(CC(C3)C1)C2 (stereo partly shown) [Compound A],effective inhibition
2,CN(C)C(CO[C@@H]1O[C@H](CO)[C@@H](O[C@@H]2O[C@H](CO)[C@H](O[C@H]3O[C@H](CO)[C@H](O)[C@H](O)[C@H]3O)[C@H](O)[C@H]2O)[C@H](O)[C@H]1O)C(O)C(=O)Nc1c2c(nc3ccccc13)CCCC2 (stereo partly shown) [Compound B],effective inhibition
3,"OC[C@H]1O[C@H](O[C@@H]2[C@H](O)[C@@H](O)[C@H](O[C@H]3[C@H](O)[C@@H](O)C(O)O[C@@H]3CO)O[C@@H]2CO)[C@H](O)[C@@H](O)[C@H]1O (stereo partly shown) [Gb3 -sugar, globotriaose, reference compound]",virtually no inhibition

# Biological target: T1, verotoxin binding to Gb3
# Conditions: spectrophotometric detection; FIG. 6B
row,SMILES,inhibition of binding of verotoxin to Gb3
1,O=C(CC12CC3CC(CC(C3)C1)C2)NC(CO[C@@H]1O[C@H](CO)[C@@H](O[C@@H]2O[C@H](CO)[C@H](O[C@H]3O[C@H](CO)[C@H](O)[C@H](O)[C@H]3O)[C@H](O)[C@H]2O)[C@H](O)[C@H]1O)C(O)C(=O)O (stereo partly shown) [Compound A1],do not appear to be effective inhibitors
2,CCCCCCCCCCCCC/C=C/[C@@H](O)[C@H](CO[C@@H]1O[C@H](CO)[C@@H](O[C@@H]2O[C@H](CO)[C@H](O[C@H]3O[C@H](CO)[C@H](O)[C@H](O)[C@H]3O)[C@H](O)[C@H]2O)[C@H](O)[C@H]1O)NC(=O)CC12CC3CC(CC(C3)C1)C2 [Compound A3],effective water-soluble inhibitor
3,CCCCCCCCCCCCC/C=C/[C@@H](O)[C@H](CO[C@@H]1O[C@H](CO)[C@H](O)[C@H](O)[C@H]1O)NC(=O)CC12CC3CC(CC(C3)C1)C2 [Compound B1],do not appear to be effective inhibitors
4,O=C(CC12CC3CC(CC(C3)C1)C2)NC(CO[C@@H]1O[C@H](CO)[C@H](O)[C@H](O)[C@H]1O)C(O)C(=O)O (stereo partly shown) [Compound B2],do not appear to be effective inhibitors
